Results on one compound are retold here after patent US12305226B2, “Barcoded protein array for multiplex single-molecule interaction profiling” (President and Fellows of Harvard College, priority 2014, dated 2025).

For this assay, the target named is ADRB2 (Homo sapiens, UniProt P07550). The conditions noted are these: 100 μM compound, 5 nM barcoded β-arr2, GRK2.
ADRB2, sequence (P07550 whole entry): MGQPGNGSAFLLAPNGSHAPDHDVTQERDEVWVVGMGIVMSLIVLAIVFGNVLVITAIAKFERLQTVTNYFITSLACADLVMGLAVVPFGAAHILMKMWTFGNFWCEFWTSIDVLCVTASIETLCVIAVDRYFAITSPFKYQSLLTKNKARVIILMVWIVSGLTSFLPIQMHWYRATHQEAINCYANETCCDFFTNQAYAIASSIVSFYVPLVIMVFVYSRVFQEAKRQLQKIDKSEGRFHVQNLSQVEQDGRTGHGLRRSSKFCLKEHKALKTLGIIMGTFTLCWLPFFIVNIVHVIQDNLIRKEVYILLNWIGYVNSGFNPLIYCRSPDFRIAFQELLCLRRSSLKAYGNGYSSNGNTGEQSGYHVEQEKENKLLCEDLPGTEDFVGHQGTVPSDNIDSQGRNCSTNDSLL

Method: A compound library could be screened in multi-well plates, and in each well, one compound was assayed with many barcoded GPCRs and a β-arrestin-2 (β-arr2) protein bearing a well-position-associated barcode (FIG. 3C). All the samples were pooled and deposited on one slide, and the interaction of a GPCR with a compound was detected by the increased GPCR polony co-localization with the corresponding β-arr2 polonies. […] The co-localization ratios were measured at 50 imaging positions on the array for statistical analysis.
A GPCR-β-arr2 binding assay was performed by mixing a ligand with ˜1 nM GPCR-nanodisc complexes in an assay buffer A2 (20 mM HEPES, pH 7.5, 50 mM KOAc, 2 mM EDTA and 5 mM MgCl2), followed by addition of 10 nM GRK2 (Life Technologies), 0.1 mM ATP, 10 nM G protein β1γ2 subunits (KeraFAST) and 5 nM barcoded β-arr2 in a total volume of 25 μL. Compounds were assayed in parallel using a multi-well plate, and the reactions were incubated at 30° C. for 30 min. Similarly as described above, GPCR-β-arr2 complexes were crosslinked and both crosslinked and free GPCRs were purified from the reactions with the anti-HA magnetic beads. Proteins were pooled and analyzed on a single array.

In the case of `CC(C)NCC(O)COc1cccc2[nH]ccc12` (stereo not shown) [pindolol], the “agonist type identified by polony co-localization ratios” value is listed as “partial”.
